According to patent US5554640A, “Use of propanolamine derivatives as selective 5-HT1 antagonists” (Eli Lilly and Company, priority 1995, dated 1996):
Entries after “also recorded” stand apart in the source; their conditions may differ. Like-named read-outs stand apart in the source and are kept apart here.

What was measured:
[1] = target: β-adrenergic receptors; experiment: Binding of 3H-dihydroalprenolol to β-adrenergic receptors, calf brain cortical membranes; set-up: species or system bovine (calf); details: inhibition of 2 nM 3H-dihydroalprenolol binding, 20° C, 20 minutes, pH 7.4, read-out: Beta IC50
Method: The compounds of this invention were evaluated in the following tests systems. Procedure for radioligand receptor assays--Male Sprague-Dawley rats weighing 110-150 g were decapitated and brains were immediately removed. Bovine brains were quickly removed from calf in the slaughterhouse. Cerebral cortices were dissected out at 4° C. and homogenized in 0.32M sucrose. After centrifugation at 1000×g for 10 minutes and then 17,000×g for 20 minutes, a crude synaptosomal fraction was sedimented. The pellet was suspended in 100 volumes of 50 mM tris-HCl buffered at pH 7.4, incubated at 37° C. for 10 minutes, and centrifuged at 50,000×g for 10 minutes. The process was repeated and the final pellet was suspended in ice-chilled 50 mM tris-HCl buffered at pH 7.4. […] Cortical membranes (500 μg protein) of calf brain were incubated at 20° C. for 20 minutes in 2 ml of medium containing […] tris-HCl buffered at pH 7.4; 2 nM 3H-dihydroalprenolol; and various concentrations of test compound. Binding was terminated by filtering samples through glass fiber (GFC) filters. […] Other conditions were as described for 3[…] binding.

[2] = target: T1, serotonin-1A receptor (5-HT1A) (Rattus norvegicus, UniProt P19327); experiment: biochemical; assay type: binding, rat (Sprague-Dawley); details: for Ratio Beta IC50 / 5-HT1A IC50: selectivity for 5-HT1A over beta receptor, Beta IC50 from 3H-dihydroalprenolol binding
T1 sequence (P19327 1-422): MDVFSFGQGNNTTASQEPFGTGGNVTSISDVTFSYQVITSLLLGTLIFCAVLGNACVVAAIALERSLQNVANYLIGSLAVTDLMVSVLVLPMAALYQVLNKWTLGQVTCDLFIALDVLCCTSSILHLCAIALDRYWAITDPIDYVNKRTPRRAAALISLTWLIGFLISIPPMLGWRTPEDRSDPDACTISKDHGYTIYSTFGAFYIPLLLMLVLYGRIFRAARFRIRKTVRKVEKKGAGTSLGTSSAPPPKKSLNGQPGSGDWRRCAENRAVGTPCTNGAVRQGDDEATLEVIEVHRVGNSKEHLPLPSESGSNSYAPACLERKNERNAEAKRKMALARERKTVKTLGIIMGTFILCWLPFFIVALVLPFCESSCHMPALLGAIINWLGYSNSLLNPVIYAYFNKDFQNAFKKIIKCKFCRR
Method: The compounds of this invention were evaluated in the following tests systems.
Procedure for radioligand receptor assays--Male Sprague-Dawley rats weighing 110-150 g were decapitated and brains were immediately removed. Bovine brains were quickly removed from calf in the slaughterhouse. Cerebral cortices were dissected out at 4° C. and homogenized in 0.32M sucrose. After centrifugation at 1000×g for 10 minutes and then 17,000×g for 20 minutes, a crude synaptosomal fraction was sedimented. The pellet was suspended in 100 volumes of 50 mM tris-HCl buffered at pH 7.4, incubated at 37° C. for 10 minutes, and centrifuged at 50,000×g for 10 minutes. The process was repeated and the final pellet was suspended in ice-chilled 50 mM tris-HCl buffered at pH 7.4.
Binding of ^3 H-8-hydroxy-2- (di-n-propylamino) tetralin(3H-80HDPAT) to serotonin-1A receptor was performed according to the method described by Wong et al., J. Neural Transm. , 71, 207 (1988). Cortical membranes (300 μg protein) isolated from rat brain were incubated at 28 C for 30 minutes in 2 ml of medium containing 50 mM tris-HCl buffered at pH 7.4; 10 μM pargyline; 0.6 mM ascorbic acid; 5 mM calcium chloride; 0.4 nM 3H-8OHDPAT; and various concentrations of test compound. Binding was terminated by filtering samples under reduced pressure through glass fiber (GFB) filters. The filters were washed twice with 5 ml of ice cold buffer and placed in scintillation vials with 10 ml of PCS (Amlersham/Searle) scintillation fluid. Radioactivity was measured with a liquid scintillation spectrometer. Specific binding of 3H-80HDPAT is defined as the difference of radioactivity bound in the absence and in the presence of 10 μM spiperone.

[3] = tested on: 5-HT1A and 5-HT1B receptors; details: background knowledge; cited from earlier work
[4] = inhibition of 0.4 nM 3H-8OHDPAT binding, rat cortical membranes, 28 C, 30 minutes, pH 7.4

SMILES	IC50 [1]	IC50 [2, 4]	Ratio Beta IC50 / 5-HT1A IC50 [2]	IC50 [2]	antagonism of 5-HT1 receptors relative to β-block (in words) [3]
OC(CNC1CCCC1)COc1cccc2ccccc12 (stereo not drawn) [(cyclopentyl)]	0.138 µM	0.049 µM	2.8	–	–
O=C(O)C(=O)O.OC(CNC1CCCCCCC1)COc1ccccc1C1CCCC1 (stereo not drawn) [cyclooctyl, 1-(2-Cyclopentylphenoxy) -3-(cyclooctylamino) 2-propanol ethanedioate]	> 1 µM	–	> 200	0.005 µM	–
COCC(C)NCC(O)COc1cccc2ccccc12 (stereo not drawn) [CH(CH3)CH2 OCH3]	0.065 µM	0.147 µM	–	–	–
O=C(O)C(=O)O.OC(CNC1CCCCCCC1)COc1cccc2ccccc12 (stereo not drawn) [(cyclooctyl), 1-(1-Naphthalenoxy)-3-(cyclooctylamino) -2-propanol ethanedioate]	1 µM	–	22.2	0.045 µM	–
CC(C)(C)C(C)(C)NCC(O)COc1cccc2ccccc12 (stereo not drawn) [C(CH3)2 C(CH3)3]	0.225 µM	0.0168 µM	15.2	–	–
CC1CCCCC1NCC(O)COc1cccc2ccccc12 (stereo not drawn) [(2-methylcyclohexyl)]	0.174 µM	0.0334 µM	5.2	–	–
OC(CN[C@H]1CC[C@H](c2ccccc2)CC1)COc1cccc2ccccc12 (stereo partly drawn) [(E-4-phenylcyclohexyl)]	0.264 µM	> 1 µM	< 0.26	–	–
C=CC(C)(C)NCC(O)COc1cccc2ccccc12 (stereo not drawn) [C(CH3)2 CHCH2]	0.124 µM	0.1 µM	1.24	–	–
CC(C)(C)NCC(O)COc1cccc2ccccc12 (stereo not drawn) [C(CH3)3]	0.0973 µM	0.077 µM	1.3	–	–
CCCCCNCC(O)COc1cccc2ccccc12 (stereo not drawn) [CH2 CH2 CH2 CH2 CH3]	0.185 µM	0.0234 µM	7.9	–	–
CC(C)NCC(O)COc1cccc2[nH]ccc12 (stereo not drawn) [pindolol]	–	–	–	–	at concentrations far in excess of those shown to block the β-receptor; also recorded: not selective agents for the serotonin receptor due to their β-blocking activities
CC#CC(C)(C)NCC(O)COc1cccc2ccccc12 (stereo not drawn) [C(CH3)2 CCCH3]	0.398 µM	0.038 µM	10.5	–	–
O=C(O)/C=C\C(=O)O.OC(CNC1CCCCC1)COc1cccc2[nH]ccc12 (stereo not drawn) [Cyclohexyl, 1-(4-Indolyloxy)-3-(cyclohexylamino)-2-propanol maleate]	0.056 µM	0.0103 µM	5.4	–	–
OC(CNC1CCCC1)COc1ccccc1C1CCCC1 (stereo not drawn) [cyclopentyl]	0.007 µM	0.005 µM	1.4	–	–
C#CC(C)(C)NCC(O)COc1cccc2ccccc12 (stereo not drawn) [C(CH3)2 CCH]	1.36 µM	0.088 µM	15.4	–	–
C#CC(C)NCC(O)COc1cccc2ccccc12 (stereo not drawn) [CH(CH3)CCH]	1.27 µM	0.18 µM	7.1	–	–
CCCCNCC(O)COc1cccc2ccccc12 (stereo not drawn) [CH2 CH2 CH2 CH3]	0.124 µM	0.0369 µM	3.4	–	–
CCC(C)NCC(O)COc1cccc2ccccc12 (stereo not drawn) [CH(CH3)CH2 CH3]	0.104 µM	0.073 µM	1.4	–	–
CCCC(C)(C)NCC(O)COc1cccc2ccccc12 (stereo not drawn) [C(CH3)2 CH2 CH2 CH3]	0.098 µM	0.041 µM	2.4	–	–
O=C(O)C(=O)O.OC(CNC1CCCCCC1)COc1ccccc1C1CCCC1 (stereo not drawn) [cycloheptyl, 1-(2-Cyclopentylphenoxy)-3-(cycloheptylamino) 2-propanol ethanedioate]	0.048 µM	–	16	0.003 µM	–
CCCC(C)(C)NCC(O)COc1ccccc1C1CCCC1.O=C(O)C(=O)O (stereo not drawn) [CH(CH3)2 CH2 CH2 CH3, 1-(2-Cyclopentylphenoxy)-3-(1,1-dimethylbutylamino) -2-propanol ethanedioate]	0.016 µM	–	2.5	0.0065 µM	–
OC(CNCCc1ccccc1)COc1cccc2ccccc12 (stereo not drawn) [CH2 CH2 C6 H5]	0.313 µM	0.063 µM	4.8	–	–
O=C(O)C(=O)O.OC(CNC1CCCCCC1)COc1cccc2ccccc12 (stereo not drawn) [(cycloheptyl), 1-(1-Naphthalenoxy) -3-(cycloheptylamino) -2-propanol ethanedioate]	2.29 µM	–	99	0.023 µM	–
OC(CN[C@H]1CC[C@@H](c2ccccc2)CC1)COc1cccc2ccccc12 (stereo partly drawn) [(Z-4-phenylcyclohexyl)]	0.442 µM	0.0341 µM	13	–	–
OC(CNC1CCCCC1)COc1cccc2ccccc12 (stereo not drawn) [(cyclohexyl)]	0.622 µM	0.0154 µM	40.4	–	–
CCC(C)(C)NCC(O)COc1cccc2ccccc12 (stereo not drawn) [C(CH3)2 CH2 CH3]	1.05 µM	0.053 µM	20	–	–
CC(C)CNCC(O)COc1cccc2ccccc12 (stereo not drawn) [CH2 CH(CH3)2]	0.683 µM	0.073 µM	9.4	–	–
